Reference: patent US12636291B2, “Compositions and methods relating to use of agonists of ALPHA5-containing GABAA receptors” (Centre for Addiction and Mental Health, priority 2019, dated 2026)

Columns and labels:
[1] = tested on: pyramidal cells in the CA1 region of the hippocampus; assay: Golgi staining morphological analysis of CA1 pyramidal cells; format: in vivo, mouse; conditions: for total spine counts, apical dendrites / total spine counts, basal dendrites: FIG. 19B; for overall spine density: FIG. 20A; for spine density, apical dendrites / spine density, basal dendrite: FIG. 20B; for spine density versus branch order, overall: FIG. 21A; for spine density versus branch order, basal dendrites: FIG. 21B; for spine density versus branch order, apical dendrites: FIG. 21C; for spine density at 30 um intervals from the soma, overall: FIG. 22A; for spine density at 30 um intervals from the soma, basal dendrites: FIG. 22B; for spine density at 30 um intervals from the soma, apical dendrites: FIG. 22C
Procedure: Details of the animals, materials, and methods used are provided following the discussion section below. Briefly, all studies discussed below were conducted using three groups of animals designated “Young” (2 months of age at the beginning of the 8-week study, 4 months of age at time of testing; “Old” (22 months of age at beginning of study, 24 months of age at time of testing); and “Treatment” (“Old” mice who received GL-II-73 in the drinking water for 8 weeks prior to evaluation of cognitive ability and pyramidal cell morphology). The last study further included a fourth group of animals, “Treatment+Washout” which were treated the same as the “Treatment” group except that the GL-II-73 was removed for a 1 week “wash-out” period prior to evaluation of pyramidal cell morphology.
We confirmed and extended these findings by conducting similar analyses of pyramidal cells in a different brain region, namely the CA1 region of the hippocampus, using the same animals. […] As observed above for the pyramidal cells of the PFC, the morphology of the CA1 pyramidal cells in the treatment group was very similar to that of the young mice. […] The positive correlation between the morphological changes observed in each of the three groups of animals in both regions of the brain, CA1 vs PFC brain regions is shown in FIGS. 11-12. This positive correlation of morphological changes across these two regions of the brain indicates a common factor underlying the effects in both regions.
We also performed the same morphological analyses of pyramidal cells in the CA1 region of the hippocampus for each group.
Drug preparation and administration: The compound GL-II-73 was administered in the drinking water for 8 weeks, and made fresh every other day to prevent any deterioration of the compound in the water at room temperature. The solution was prepared at 30 mg/kg for an estimated volume of 8 ml/mouse/day, based on previous calculations. For the pilot study in the 5×FAD mouse model, the compound GL-II-73 was prepared for intra peritoneal injection only, at a dose of 10 mg/kg. Vehicle solution was made of 85% distilled water, 14% propylene glycol and 1% tween-80.
Brain collection and Golgi staining: Twenty-four hours after the completion of the behavioral testing, mice were euthanized using cervical dislocation. Brains were carefully collected from the skull, rinsed with MilliQ water and immersed in the Golgi staining solution provided by Neurodigitech (San Diego, CA). Six hours after the beginning of the incubation, the solution was changed to provide fresh solution. Then brains were left incubating for 14 days at room temperature, in the dark. For better results, vials containing the brains were gently swirled 3 times a week. After the incubation period, the staining solution was discarded and replaced by a storage solution and brains (n=4 per group) were shipped to Neurodigitech for morphological analysis.
Sample selection criteria: The sampling process was conducted as follows: The investigators first 1) previewed the entire rostro-caudal axis of ROIs, under low-mag Zeiss objectives (10× and 20×), 2), compared and located those with the least truncations of distal dendrites as possible under high-mag Zeiss objectives (40× and 63×), 3), and then 4) used a Zeiss 100× objective with immersion oil to perform 3D dendritic reconstruction, followed by counting of the spines throughout the entire dendritic trees. The criteria for selecting candidate neurons for analysis were based on i) visualization of a completely filled soma with no overlap of neighboring soma and completely filled dendrites, ii) the tapering of most distal dendrites; iii) the visualization of the complete 3-D profile of dendritic trees using the 3-D display of imaging software. Neurons with incomplete impregnation and/or neurons with truncations due to the plane of sectioning were not collected. […]

SV129 mice = assay: Neurogenesis (proliferation, survival, maturation) in the SV129 mouse model; format: in vivo; conditions: compared to VEH
Text: We next assessed the effects of GL-II-73 on neurogenesis using the SV129 mouse model Kim et al. 2017. Neural Plasticity, doi.org.10.1155/2017/5863258. Specifically, we assessed the effects of treatment on neuronal cell proliferation, survival, and maturation. It is now recognized that neurogenesis occurs not only during development, but also in the adult brain. […] Specifically, adult neurogenesis is known to occur in three regions in the mammalian brain: (i) the subgranular zone (SGZ) of the dentate gyrus in the hippocampus, which is a region that is involved in regulating learning and memory; (ii) the subventricular zone (SVZ), which is situated throughout the lateral walls of the brain's lateral ventricles; and (ii) the amygdala. New neurons born in the SGZ migrate into the granule cell layer of the dentate gyrus and eventually become granule cells. These newborn neurons integrate into the existing circuitry and receive functional input. Adult neurogenesis in the hippocampus is therefore defined as the progression from neural stem cell to mature dentate granule neuron. All stages of adult neurogenesis are regulated by physiological activity, including the proliferation, differentiation, fate determination of adult neural stem cells (NSCs) and progenitors, and the survival, maturation, and integration of newborn neurons.
The stages of neurogenesis can be broken down into (i) proliferation, (ii) survival of the newly formed cells, and (iii) their maturation. Each can be evaluated using specific markers for proliferation, survival, and maturation. […] BrdU can be used to show survival of the newly proliferating cells since it is incorporated into the newly synthesized DNA of replicating cells and is then maintained in the newly formed cells. Thus, quantitative immunohistochemistry against BrdU is used as a proxy of survival. Finally, doublecortin can be used as a proxy of maturation. Previous studies have shown that all steps of neurogenesis were down regulated in the SV129 mice, and further that chronic treatment with fluoxetine, a first line monoaminergic antidepressant, increased the neurogenesis in this mouse model. We therefore used this model system to assess the effects of chronic treatment with GL-II-73 on neurogenesis.
Fluoxetine treatment was used as a positive control in each experiment.

[2] = Table 3, Old, Treatment group, 4 samples
[3] = Table 3, Old, Washout group, 4 samples
[4] = first study, Old+Treatment mice
[5] = washout study, Old+Treatment vs Young mice, p>0.05
[6] = washout study, Washout vs Old mice, p<0.05
[7] = washout study, Old+Treatment vs Old mice, p<0.05

## C#Cc1ccc2c(c1)C(c1ccccc1F)=N[C@H](C)c1c(C(=O)N(C)C)ncn1-2 (stereo in doubt) [GL-II-73, 8-ethynyl-6-(2-fluorophenyl)-N,N,4-trimethyl-4H-benzo[f]imidazo[1,5-a][1,4]diazepine-3-carboxamide]
[1]; Table 3, washout study, Old, Treatment group (8 weeks GL-II-73), 4 samples
  Total segments: 1226
[1]; [2]
  Overall spinal density: 1.07
  Total lengths (microns): 60170 microns
  total spine counts: 64468
[1]; Table 3, Old, Washout group (8 weeks GL-II-73, then 1 week wash-out), 4 samples
  Total segments: 1266
[1]; [3]
  Overall spinal density: 1.10
  Total lengths (microns): 65954 microns
  total spine counts: 72587
[1]; [4]
  Frequency of Intersections × 30 um interval from soma, apical: at 150 um-180 um, apically
  Frequency of Intersections × 30 um interval from soma, basal: higher frequency at 120 um-150 um, basally
[1]; first study, Old+Treatment vs Old mice
  Frequency of Intersections × 30 um interval from soma: higher frequency of intersections at the middle (120 um to 180 um) of the dendritic field than Old mice
[1]; first study, treatment group vs untreated old mice
  spine density: relatively higher spine density than the untreated group of old mice
[1]; washout study, FIG. 19A, Old+Treatment vs Young mice, p>0.05
  total spine counts: no difference was found between Young and Old+Treatment as well as Washout mice
[1]; washout study, FIG. 19A, Washout (1 week after 8 weeks GL-II-73) vs Old mice, p<0.05
  total spine counts: higher spine counts than Old mice
[1]; [5]
  total spine counts, apical dendrites: no difference in total spine counts of both basal and apical dendrites between Young and Old+Treatment as well as Washout mice
  total spine counts, basal dendrites: no difference in total spine counts of both basal and apical dendrites between Young and Old+Treatment as well as Washout mice
[1]; [6]
  total spine counts, apical dendrites: higher spine counts of apical dendrites than Old mice
  total spine counts, basal dendrites: higher spine counts of basal dendrites than Old mice
  overall spine density: higher spine density than Old mice
  spine density, apical dendrites: Old mice exhibited a lower spine density than Young, Old+Treatment and Washout mice
  spine density, basal dendrite: Old mice showed a significant decrease in the basal dendrite as compared to Young, Old+Treatment and Washout mice
  spine density versus branch order, overall: higher spine density at the 1st and 3rd to 6th
  spine density versus branch order, basal dendrites: higher density at the 1st branch order than Old mice
  spine density versus branch order, apical dendrites: at the 4th and 5th orders than Old mice
  spine density at 30 um intervals from the soma, overall: higher spine density at 30 um to 180 um from soma
  spine density at 30 um intervals from the soma, basal dendrites: higher density at 30 um from soma than Old mice
  spine density at 30 um intervals from the soma, apical dendrites: higher spine density at 30 um to 60 um and 120 um to 210 um from soma than Old mice
[1]; [7]
  overall spine density: higher spine density than Old mice
  spine density, apical dendrites: Old mice exhibited a lower spine density than Young, Old+Treatment and Washout mice
  spine density, basal dendrite: Old mice showed a significant decrease in the basal dendrite as compared to Young, Old+Treatment and Washout mice
  spine density versus branch order, overall: higher spine density at the 1st and 5th branch orders
  spine density versus branch order, basal dendrites: higher density at the 1st branch order than Old mice
  spine density versus branch order, apical dendrites: higher density at the 1st order than Old mice
  spine density at 30 um intervals from the soma, overall: higher spine density at 30 um to 60 um and 120 um to 240 um from soma
  spine density at 30 um intervals from the soma, basal dendrites: higher density at 30 um from soma than Old mice
  spine density at 30 um intervals from the soma, apical dendrites: higher density at 120 um to 180 um from soma than Old mice
SV129 mice; chronic treatment (4 weeks), FIG. 13A, FLX p<0.001, GL-II-73 p<0.05
  proliferation: number of K167-positive cells: increased the number of K167-positive cells
SV129 mice; chronic treatment (4 weeks), FIG. 13B
  survival: BrdU-positive cells: increased survival as shown by the increased in BrdU labeling in SV129 mice, as shown in FIG. 13B, even though not reaching significance
SV129 mice; chronic treatment, FIG. 14B, ps<0.01
  maturation index (DCX+cells possessing tertiary dendrites over the total DCX+cells): an increase with both FLX and GL-II-73
